# Laboratory results published in publication PMC7104388 (Journal of medicinal chemistry, 2019).
# Assays:
# PAMPA permeability = type: in vitro ADME; settings: pH 7.4
# Pf20S β5 [1] = molecular target: T1, Pf20S β5 (Plasmodium falciparum, UniProt A0A5K1K7U1+Q8IJT1)
# T1 sequence (Q8IJT1 61-271): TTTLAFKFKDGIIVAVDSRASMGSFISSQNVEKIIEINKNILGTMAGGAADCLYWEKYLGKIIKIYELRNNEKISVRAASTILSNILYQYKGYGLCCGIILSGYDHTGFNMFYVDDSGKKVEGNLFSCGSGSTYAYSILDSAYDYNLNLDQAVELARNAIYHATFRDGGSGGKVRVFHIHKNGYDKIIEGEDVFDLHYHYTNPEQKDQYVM
# T1 sequence (A0A5K1K7U1 29-240): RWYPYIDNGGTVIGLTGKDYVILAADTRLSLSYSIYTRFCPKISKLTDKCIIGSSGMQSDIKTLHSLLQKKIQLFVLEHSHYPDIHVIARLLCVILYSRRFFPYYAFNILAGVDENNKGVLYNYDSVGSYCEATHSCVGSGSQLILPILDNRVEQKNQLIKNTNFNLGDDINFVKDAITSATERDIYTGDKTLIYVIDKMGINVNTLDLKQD
# Pf 3D7 = test: Parasite growth inhibition, erythrocytic stage, SYBR Green 72 h
# c-20S β5c = c-20S β5c (Homo sapiens, UniProt P20618+P28074); test: human c-20S β5c enzyme inhibition; type: biochemical
# i-20S β5i = i-20S β5i (Homo sapiens, UniProt P20618+P28062); test: human i-20S β5i enzyme inhibition; type: biochemical
# Pf20S β5 [2] = molecular target: T1, Pf20S β5; test: biochemical; settings: IC50 Pf20S β5, Table 3; mean of at least three independent experiments
# [3] = tested on: P. falciparum clinical isolates (Uganda); test: Ex vivo 72-h growth inhibition of P. falciparum field isolates in Uganda; type: cell-based; settings: Plasmodium falciparum, read-out: EC50 range against Ugandan isolates
# P. falciparum Dd2 = test: Parasite growth inhibition, parental Dd2; settings: Plasmodium falciparum
# Pf20S β5 [4] = molecular target: T1, Pf20S β5; test: Pf20S active subunit labeling by MV151; type: binding, P. falciparum; settings: Figure 2B
# [5] = tested on: wild-type Pf Dd2 parasites; test: Dual drug assay and isobologram analysis, 72 h; type: cell-based, P. falciparum; settings: WHZ-04 in combination with WLW-VS
smiles,measurement,setting,value
COc1cccc(C(=O)NCCNC(=O)[C@H](CC(=O)NC(C)(C)C)NS(=O)(=O)c2ccc(C)cc2)c1 [WHZ-12],PAMPA @ pH7.4,PAMPA permeability,159 nm/sec
same,fold enhanced potency relative to WHZ-11,Pf20S β5 [1],2.5 fold
Cc1ccc(S(=O)(=O)N[C@@H](CC(=O)NC(C)(C)C)C(=O)NCCNC(=O)c2ccccc2F)cc1 [WHZ-05],PAMPA @ pH7.4,PAMPA permeability,105 nm/sec
same,fold decrease in activity against cultured parasites compared to PKS21221,Pf 3D7,4.7 fold
Cc1ccc(S(=O)(=O)N[C@@H](CC(=O)NC(C)(C)C)C(=O)NCCNC(=O)c2ccc(F)cc2)cc1 [WHZ-07],fold reduction in potency relative to WHZ-04,Pf20S β5 [1],6 fold
Cc1ccc(S(=O)(=O)N[C@@H](CC(=O)NC(C)(C)C)C(=O)NCCNC(=O)c2c(O)cccc2F)cc1 [WHZ-20],IC50,c-20S β5c,> 100000 nM
same,"fold of selectivity, β5c over Pf20S β5",c-20S β5c; in parenthesis in Table 3,> 24.7 fold
same,IC50,i-20S β5i,9970 nM
same,"fold of selectivity, β5i over Pf20S β5",i-20S β5i; in parenthesis in Table 3,2.5 fold
same,IC50,Pf20S β5 [2],4060 nM
"CCN(CC)CCCC(C)Nc1ccnc2cc(Cl)ccc12 (centres unmarked) [chloroquine, reference compound]",EC50,[3],4.5 to 27 nM
Cc1cc(C(=O)N[C@@H](CC(=O)NC(C)(C)C)C(=O)NCCNC(=O)c2cccc(-n3cccn3)c2)no1 [TDI4258],EC90,P. falciparum Dd2,60 nM
C#Cc1cccc(C(=O)NCCNC(=O)[C@H](CC(=O)NC(C)(C)C)NS(=O)(=O)c2ccc(C)cc2)c1 [WHZ-13],EC50,[3],4.4 to 16 nM
same,PAMPA @ pH7.4,PAMPA permeability,203 nm/sec
same,inhibition of labeling of Pf20S β5 by MV151,Pf20S β5 [4],only inhibited the labeling of the Pf20S β5
same,fold enhanced potency relative to WHZ-11,Pf20S β5 [1],4.8 fold
Cc1ccc(S(=O)(=O)N[C@@H](CC(=O)NC(C)(C)C)C(=O)NCCNC(=O)c2ccccc2)cc1 [WHZ-04],PAMPA @ pH7.4,PAMPA permeability,137 nm/sec
same,type of interaction by isobologram analysis,[5],synergistic to additive
same,∑FIC,"[5]; 72-h dual drug assay, three independent experiments",0.52 ± 0.13
Cc1ccc(S(=O)(=O)N[C@@H](CC(=O)NC(C)(C)C)C(=O)NCCNC(=O)c2ccccc2Cl)cc1 [WHZ-08],fold reduction in potency relative to WHZ-04,Pf20S β5 [1],10 fold
